Laboratory results: ChEMBL document CHEMBL4219152, “Design, synthesis, biological evaluation, homology modeling and docking studies of (E)-3-(benzo[d][1,3]dioxol-5-ylmethylene) pyrrolidin-2-one derivatives as potent anticonvulsant agents” (Bioorg Med Chem Lett, 2018)
Activity calls are given as the source filed them. No cut-off for these calls is given here.

How the values were obtained:
[1] = Protection index, ratio of TD50 for neurotoxicity by motor impairment in Kunming mouse to ED50 for protection against maximal electroshock-induced seizures in ip dosed Kunming mouse; format: toxicity, organism-based; conditions: in vivo, read-out: Ratio TD50/ED50
Mus musculus [2] = test: Anticonvulsant activity in ip dosed Kunming mouse assessed as minimum dose required to protect maximal electroshock-induced seizures in mouse measured after 0.5 hrs; format: functional; conditions: read-out: MED
Mus musculus [3] = organism: Mus musculus; test: Neurotoxicity in Kunming mouse assessed as motor impairment by measuring reduction in time spent on rotarod after 0.5 hrs by rotarod test; format: toxicity, organism-based; conditions: in vivo
Mus musculus [4] = organism: Mus musculus; test: Neurotoxicity in Kunming mouse assessed as motor impairment by measuring reduction in time spent on rotarod after 4 hrs by rotarod test; format: toxicity, organism-based; conditions: in vivo
[5] = Neurotoxicity in ip dosed Kunming mouse assessed as motor impairment by measuring reduction in time spent on rotarod; format: toxicity, organism-based; conditions: in vivo
Mus musculus [6] = test: Anticonvulsant activity in ip dosed Kunming mouse assessed as protection against maximal electroshock-induced seizures; format: functional
Mus musculus [7] = test: Anticonvulsant activity in ip dosed Kunming mouse assessed as minimum dose required to protect maximal electroshock-induced seizures in mouse by measuring time to peak effect; format: functional
Mus musculus [8] = test: Anticonvulsant activity in Kunming mouse assessed as protection against subcutaneously injected metrazol-induced seizures at 300 mg/kg, ip measured after 0.5 hrs; format: functional, organism-based
Mus musculus [9] = test: Anticonvulsant activity in ip dosed Kunming mouse assessed as minimum dose required to protect maximal electroshock-induced seizures in mouse measured after 4 hrs; format: functional; conditions: read-out: MED
Mus musculus [10] = test: Anticonvulsant activity in Kunming mouse assessed as protection against subcutaneously injected metrazol-induced seizures at 300 mg/kg, ip after 4 hrs; format: functional, organism-based
Mus musculus [11] = test: Anticonvulsant activity in Kunming mouse assessed as protection against maximal electroshock-induced seizures in mouse at 300 mg/kg, ip measured after 4 hrs; format: functional, organism-based
Mus musculus [12] = test: Anticonvulsant activity in Kunming mouse assessed as protection against maximal electroshock-induced seizures in mouse at 300 mg/kg, ip measured after 0.5 hrs; format: functional, organism-based
Mus musculus [13] = test: Anticonvulsant activity in ip dosed Kunming mouse assessed as protection against subcutaneously injected metrazol-induced seizures after 0.5 hrs; format: functional; conditions: read-out: MED
[14] = biological target: Sodium channel protein type 1 subunit alpha (Homo sapiens) (UniProt P35498); test: Inhibition of human Nav1.1 expressed in CHO-K1 cells assessed as use-dependent block at 10 uM at holding potential of -120 mV incubated for 30 mins prior to testing measured every 20 seconds by whole-cell patch clamp method; format: cell-based
Nav1.1 = Nav1.1 (Homo sapiens, UniProt P35498); test: Inhibition of human Nav1.1 expressed in CHO-K1 cells assessed as state-dependent block at 10 uM at holding potential of -120 mV incubated for 30 mins prior to testing measured every 20 seconds by whole-cell patch clamp method; format: cell-based; conditions: CHO-K1 cells expressing human Nav1.1

Row | Compound | selectivity ratio [1] | minimal effective dose (Mus musculus [2]) [mg/kg] | MLD (Mus musculus [3]) [mg/kg] | MLD (Mus musculus [4]) [mg/kg] | TD50 [5] [mg/kg] | ED50 (Mus musculus [6]) [mg/kg] | Time (Mus musculus [7]) [h] | Activity (Mus musculus [8]) | minimal effective dose (Mus musculus [9]) [mg/kg] | Activity (Mus musculus [10]) | Activity (Mus musculus [11]) | Activity (Mus musculus [12]) | minimal effective dose (Mus musculus [13]) [mg/kg] | inhibition [14] [%] | inhibition at 0.5 h, 10 µM (Nav1.1) [%]
1 | O=C1NCC/C1=C\c1ccc2c(c1)OCO2 | 10.4 | 30 | 300 | 300 | 179 | 17.3 | 1 | inactive | 100 | inactive |  |  |  |  | 
2 | O=C1NC(=O)C(c2ccccc2)(c2ccccc2)N1 [PHENYTOIN] |  | 30 | 100 | 100 |  |  | 2 | inactive | 30 | inactive |  |  |  |  | 
3 | Cc1ccc(CN2CC/C(=C\c3ccc4c(c3)OCO4)C2=O)cc1 | 26.5 | 30 | 300 | 300 | 167 | 6.3 | 1 | inactive | 30 | inactive |  |  |  |  | 
4 | O=C1/C(=C/c2ccc3c(c2)OCO3)CCN1Cc1ccc(F)cc1 |  | 30 | 300 | 300 |  |  |  | inactive |  | inactive | inactive |  |  |  | 
5 | O=C1/C(=C/c2ccc3c(c2)OCO3)CCN1Cc1ccccc1F | 42.6 | 30 | 300 | 300 | 238 | 5.6 | 1 | inactive | 30 | inactive |  |  |  |  | 
6 | CCC1(c2ccccc2)C(=O)NC(=O)NC1=O [PHENOBARBITAL] |  |  |  |  |  | 21.8 | 1 |  |  |  |  |  |  |  | 
7 | O=C1/C(=C/c2ccc3c(c2)OCO3)CCN1Cc1cccc(F)c1 |  |  | 300 | 300 |  |  |  | inactive | 30 | inactive |  | inactive |  |  | 
8 | O=C1/C(=C/c2ccc3c(c2)OCO3)CCN1Cc1ccccc1Cl |  |  | 300 | 300 |  |  |  |  |  | inactive | inactive | inactive | 100 |  | 
9 | O=C1/C(=C/c2ccc3c(c2)OCO3)CCN1Cc1cccc(C(F)(F)F)c1 | 37.4 | 30 | 300 | 300 | 161 | 4.3 | 1 | inactive | 30 | inactive |  |  |  | 99.9 | 19.5
10 | CC(C)(C)c1ccc(CN2CC/C(=C\c3ccc4c(c3)OCO4)C2=O)cc1 |  | 100 | 300 | 300 |  |  |  | inactive | 100 | inactive |  |  |  |  | 
11 | Cc1ccccc1CN1CC/C(=C\c2ccc3c(c2)OCO3)C1=O |  |  | 300 | 300 |  |  |  |  | 30 | inactive |  | inactive | 100 |  | 
12 | O=C1/C(=C/c2ccc3c(c2)OCO3)CCN1Cc1c(F)cccc1F |  | 100 | 300 | 300 |  |  |  | inactive | 100 | inactive |  |  |  |  | 
